Consider 13 molecules from ChEMBL document CHEMBL1909046, “DrugMatrix in vitro pharmacology data”.

Data set [1] addresses T1, C-X-C chemokine receptor type 2 (Homo sapiens, UniProt P25025).
T1 sequence (P25025 whole entry): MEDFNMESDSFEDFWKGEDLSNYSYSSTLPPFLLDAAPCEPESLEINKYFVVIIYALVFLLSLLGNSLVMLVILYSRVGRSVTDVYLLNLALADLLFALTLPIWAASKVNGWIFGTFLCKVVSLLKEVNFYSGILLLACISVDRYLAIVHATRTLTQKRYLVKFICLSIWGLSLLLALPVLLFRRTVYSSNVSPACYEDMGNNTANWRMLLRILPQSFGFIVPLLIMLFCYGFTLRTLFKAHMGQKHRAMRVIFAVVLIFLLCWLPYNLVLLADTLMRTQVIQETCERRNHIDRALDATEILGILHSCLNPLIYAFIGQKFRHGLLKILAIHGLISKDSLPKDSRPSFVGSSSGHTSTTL
It is filed as cell membranes, Membrane. The settings on record: cho-k1.

Another data set deals with T2, Interstitial collagenase (Homo sapiens, UniProt P03956).
T2 sequence (P03956 whole entry): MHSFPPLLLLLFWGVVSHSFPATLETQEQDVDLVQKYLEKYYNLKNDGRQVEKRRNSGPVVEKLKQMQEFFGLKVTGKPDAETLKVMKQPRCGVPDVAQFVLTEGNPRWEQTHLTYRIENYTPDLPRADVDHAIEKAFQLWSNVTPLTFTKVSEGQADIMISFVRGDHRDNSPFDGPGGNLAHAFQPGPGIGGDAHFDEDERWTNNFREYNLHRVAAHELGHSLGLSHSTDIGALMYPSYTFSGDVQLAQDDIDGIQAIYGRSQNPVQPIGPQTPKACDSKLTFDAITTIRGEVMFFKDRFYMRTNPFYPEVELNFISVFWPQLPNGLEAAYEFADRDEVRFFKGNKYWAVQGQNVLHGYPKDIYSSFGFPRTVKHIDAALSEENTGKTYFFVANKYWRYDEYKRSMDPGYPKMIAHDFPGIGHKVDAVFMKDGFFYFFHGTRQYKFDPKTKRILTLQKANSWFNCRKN
Kind of data set: biochemical. The format is tissue-based, Rheumatoid synovial fibroblasts.

In data set [2] the target is Mitogen-activated protein kinase 14 (Homo sapiens, UniProt Q16539). More on the design: species or system Escherichia coli.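 Further: inhibition of p38alpha enzyme activity in a biochemical kinase assay, with myelin basic protein serving as substrate.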
The next data set concerns the target Melanocortin receptor 5 (Homo sapiens, UniProt P33032). It is filed as cell membranes, Membrane. To be noted: hek293.
Data set [3] deals with T3, Angiotensin-converting enzyme (Oryctolagus cuniculus, UniProt P12822).
T3 sequence (P12822 whole entry): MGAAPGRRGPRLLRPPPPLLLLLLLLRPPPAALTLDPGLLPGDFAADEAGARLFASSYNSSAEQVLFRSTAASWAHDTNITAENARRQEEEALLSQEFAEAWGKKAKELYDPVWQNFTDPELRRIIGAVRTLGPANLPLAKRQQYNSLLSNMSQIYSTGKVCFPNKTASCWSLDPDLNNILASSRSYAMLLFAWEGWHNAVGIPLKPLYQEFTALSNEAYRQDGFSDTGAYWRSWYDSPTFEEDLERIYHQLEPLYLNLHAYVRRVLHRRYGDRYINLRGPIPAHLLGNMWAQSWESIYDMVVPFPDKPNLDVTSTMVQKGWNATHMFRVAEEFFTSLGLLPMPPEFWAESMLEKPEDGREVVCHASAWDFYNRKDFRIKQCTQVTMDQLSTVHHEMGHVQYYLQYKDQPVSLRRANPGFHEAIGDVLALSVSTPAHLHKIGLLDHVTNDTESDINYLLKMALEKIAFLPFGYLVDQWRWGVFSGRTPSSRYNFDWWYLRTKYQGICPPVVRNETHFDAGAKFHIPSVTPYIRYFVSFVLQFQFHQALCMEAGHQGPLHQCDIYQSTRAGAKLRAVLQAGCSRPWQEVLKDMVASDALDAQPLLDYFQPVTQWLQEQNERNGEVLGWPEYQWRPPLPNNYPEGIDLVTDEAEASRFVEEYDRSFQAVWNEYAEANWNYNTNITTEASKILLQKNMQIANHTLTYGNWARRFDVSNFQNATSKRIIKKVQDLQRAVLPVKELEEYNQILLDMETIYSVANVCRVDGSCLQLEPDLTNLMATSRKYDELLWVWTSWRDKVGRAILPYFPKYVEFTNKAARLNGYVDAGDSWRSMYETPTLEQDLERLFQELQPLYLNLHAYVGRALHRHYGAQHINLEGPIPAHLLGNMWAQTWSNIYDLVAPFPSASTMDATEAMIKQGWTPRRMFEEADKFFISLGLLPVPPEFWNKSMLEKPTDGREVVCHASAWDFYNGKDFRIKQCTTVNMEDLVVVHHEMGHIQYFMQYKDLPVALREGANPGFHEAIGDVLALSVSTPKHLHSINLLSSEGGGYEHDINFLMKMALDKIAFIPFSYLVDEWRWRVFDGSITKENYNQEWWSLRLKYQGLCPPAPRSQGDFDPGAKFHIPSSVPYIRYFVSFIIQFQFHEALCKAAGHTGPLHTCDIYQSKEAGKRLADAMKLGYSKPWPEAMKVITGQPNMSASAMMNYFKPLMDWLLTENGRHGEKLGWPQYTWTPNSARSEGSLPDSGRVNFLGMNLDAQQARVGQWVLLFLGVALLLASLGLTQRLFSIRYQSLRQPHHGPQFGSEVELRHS
The format is tissue-based, Lung.

Data set [4] deals with Tyrosine-protein kinase Fyn (Homo sapiens, UniProt P06241). Kind of data set: biochemical. It is filed as cell-based, Insect cells.
The next data set addresses T4, Cytochrome P450 2A6 (Homo sapiens, UniProt P11509).
T4 sequence (P11509 whole entry): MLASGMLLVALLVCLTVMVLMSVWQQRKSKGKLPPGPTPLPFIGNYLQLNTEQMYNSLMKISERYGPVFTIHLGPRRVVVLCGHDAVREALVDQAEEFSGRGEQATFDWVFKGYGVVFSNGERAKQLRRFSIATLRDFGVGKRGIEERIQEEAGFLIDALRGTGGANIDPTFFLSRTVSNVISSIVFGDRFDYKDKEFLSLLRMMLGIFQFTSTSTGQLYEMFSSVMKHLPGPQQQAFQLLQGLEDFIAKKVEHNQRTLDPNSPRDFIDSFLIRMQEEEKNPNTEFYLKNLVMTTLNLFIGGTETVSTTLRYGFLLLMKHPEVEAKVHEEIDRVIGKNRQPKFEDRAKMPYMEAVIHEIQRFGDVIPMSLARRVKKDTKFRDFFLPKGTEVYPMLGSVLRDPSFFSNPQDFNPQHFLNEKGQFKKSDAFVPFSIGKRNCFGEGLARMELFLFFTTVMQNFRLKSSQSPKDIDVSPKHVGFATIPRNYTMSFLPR
The settings on record: bti-tn-5b1-4.
Further: in other assays of this panel Not Active means under 50% inhibition at 10 µM.

Chain of Mitogen-activated protein kinase 14 (Q16539 whole entry): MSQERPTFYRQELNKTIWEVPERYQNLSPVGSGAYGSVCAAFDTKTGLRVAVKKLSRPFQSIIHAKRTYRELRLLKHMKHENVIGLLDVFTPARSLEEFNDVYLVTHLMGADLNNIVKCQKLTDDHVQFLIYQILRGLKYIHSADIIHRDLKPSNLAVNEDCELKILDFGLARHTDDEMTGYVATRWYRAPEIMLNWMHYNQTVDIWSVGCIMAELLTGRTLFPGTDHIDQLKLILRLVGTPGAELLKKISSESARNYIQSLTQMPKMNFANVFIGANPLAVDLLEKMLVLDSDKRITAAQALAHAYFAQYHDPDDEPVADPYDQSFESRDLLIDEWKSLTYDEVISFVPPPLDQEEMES
Chain of Tyrosine-protein kinase Fyn (P06241 whole entry): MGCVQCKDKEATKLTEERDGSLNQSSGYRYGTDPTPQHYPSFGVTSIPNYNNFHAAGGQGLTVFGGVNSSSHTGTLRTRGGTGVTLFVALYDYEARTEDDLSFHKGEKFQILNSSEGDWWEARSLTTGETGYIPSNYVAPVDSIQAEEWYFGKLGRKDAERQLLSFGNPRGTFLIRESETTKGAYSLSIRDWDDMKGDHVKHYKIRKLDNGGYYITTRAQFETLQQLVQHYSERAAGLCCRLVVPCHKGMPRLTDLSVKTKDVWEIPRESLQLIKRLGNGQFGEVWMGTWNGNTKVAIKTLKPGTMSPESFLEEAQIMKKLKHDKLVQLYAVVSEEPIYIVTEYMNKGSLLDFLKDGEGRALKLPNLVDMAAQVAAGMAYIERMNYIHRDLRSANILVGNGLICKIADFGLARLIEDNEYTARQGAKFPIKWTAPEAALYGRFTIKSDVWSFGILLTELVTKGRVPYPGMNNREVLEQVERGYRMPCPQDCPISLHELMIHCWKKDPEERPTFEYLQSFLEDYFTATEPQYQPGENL
Chain of Melanocortin receptor 5 (P33032 whole entry): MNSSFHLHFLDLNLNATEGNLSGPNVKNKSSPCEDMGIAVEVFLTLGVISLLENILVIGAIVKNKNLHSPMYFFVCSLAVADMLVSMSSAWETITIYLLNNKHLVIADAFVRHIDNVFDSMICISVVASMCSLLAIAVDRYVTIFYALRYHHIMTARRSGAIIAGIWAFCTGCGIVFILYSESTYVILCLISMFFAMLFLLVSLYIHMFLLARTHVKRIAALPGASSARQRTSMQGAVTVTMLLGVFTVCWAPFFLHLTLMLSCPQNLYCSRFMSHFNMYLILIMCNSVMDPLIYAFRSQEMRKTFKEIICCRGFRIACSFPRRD

Consider `C[C@]12CC[C@@H]3c4ccc(OC(=O)c5ccccc5)cc4CC[C@H]3[C@@H]1CC[C@@H]2O` [ESTRADIOL BENZOATE], for which the IC50 result was “Not Active” in data set [1]; “Not Active” against Interstitial collagenase; “Not Active” in data set [2]; “Not Active” against Melanocortin receptor 5; “Not Active” in data set [3]; 23 µM in data set [4] (read-out: IC50). In addition, the concentration for half-maximal inhibition (IC50) entry against Cytochrome P450 2A6 is on record as “Not Active”. Besides, at Cytochrome P450 2A6, the Ki result was “Not Active”.
Consider `C[C@]12CC[C@@H]3c4ccc(O)cc4CC[C@H]3[C@@H]1CC[C@@H]2O` [ESTRADIOL], for which the IC50 result (in data set [1]; at Interstitial collagenase; in data set [2]; on Melanocortin receptor 5; in data set [3]; in data set [4] (insect cells)) was “Not Active” each time. The IC50 result on Cytochrome P450 2A6 is on record as “Not Active”. Also, the Ki result on Cytochrome P450 2A6 is reported as “Not Active”.
Regarding `CC[C@@H](CO)NCCN[C@@H](CC)CO` [ETHAMBUTOL], the IC50 entry (in data set [1]; against Interstitial collagenase; in data set [2]; at Melanocortin receptor 5; in data set [3]; in data set [4] (insect cells)) was “Not Active” in each case. In addition, the IC50 result on Cytochrome P450 2A6 is listed as “Not Active”. Further, the Ki result on Cytochrome P450 2A6 is given as “Not Active”.
Regarding `CC1(C)O[C@@H]2C[C@H]3[C@@H]4C[C@H](F)C5=CC(=O)C=C[C@]5(C)[C@H]4[C@@H](O)C[C@]3(C)[C@]2(C(=O)CO)O1` [FLUNISOLIDE], the IC50 entry (in data set [1]; on Interstitial collagenase; in data set [2]; against Melanocortin receptor 5; in data set [3]; in data set [4] (insect cells)) was “Not Active” in each case. Further, the IC50 entry against Cytochrome P450 2A6 is “Not Active”. Also, at Cytochrome P450 2A6, the Ki entry is reported as “Not Active”.
For the molecule `CC1(C)O[C@@H]2C[C@H]3[C@@H]4C[C@H](F)C5=CC(=O)C=C[C@]5(C)[C@@]4(F)[C@@H](O)C[C@]3(C)[C@]2(C(=O)CO)O1` [FLUOCINOLONE ACETONIDE], the IC50 result (in data set [1]; against Interstitial collagenase; in data set [2]; on Melanocortin receptor 5; in data set [3]; in data set [4] (insect cells)) was “Not Active” each time. On Cytochrome P450 2A6, the IC50 result is given as “Not Active”. The Ki entry at Cytochrome P450 2A6 is “Not Active”.
`CC1(C)O[C@@H]2C[C@H]3[C@@H]4C[C@H](F)C5=CC(=O)CC[C@]5(C)[C@H]4[C@@H](O)C[C@]3(C)[C@]2(C(=O)CO)O1` [FLURANDRENOLIDE]: the IC50 entry (in data set [1]; at Interstitial collagenase; in data set [2]; against Melanocortin receptor 5; in data set [3]; in data set [4] (insect cells)) was “Not Active” each time. At Cytochrome P450 2A6, the half-inhibitory concentration (IC50) entry was “Not Active”. For the same molecule, the Ki entry on Cytochrome P450 2A6 is reported as “Not Active”.
`CN(C)c1ccc(C(=C2C=CC(=[N+](C)C)C=C2)c2ccc(N(C)C)cc2)cc1.[Cl-]` [GENTIAN VIOLET]: the half-inhibitory concentration (IC50) result in data set [1] is “Not Active”; at Interstitial collagenase, “Not Active”; in data set [2] it was “Not Active”; against Melanocortin receptor 5 it was “Not Active”; in data set [3], “Not Active”; in data set [4] (read-out: IC50), 2.15 µM. Besides, the IC50 result against Cytochrome P450 2A6 is “Not Active”. Moreover, the Ki entry at Cytochrome P450 2A6 is “Not Active”.
In the case of `Cc1ccc(S(=O)(=O)NC(=O)NN2CC3CCCC3C2)cc1` (centres undefined) [GLICLAZIDE], the IC50 entry (in data set [1]; on Interstitial collagenase; in data set [2]; against Melanocortin receptor 5; in data set [3]; in data set [4] (insect cells)) was “Not Active” each time. Moreover, on Cytochrome P450 2A6, the IC50 entry was “Not Active”. The Ki result on Cytochrome P450 2A6 is given as “Not Active”.
As for `CC(C)Cc1ccc(C(C)C(=O)O)cc1` (centres undefined) [IBUPROFEN], the IC50 entry (in data set [1]; against Interstitial collagenase; in data set [2]; on Melanocortin receptor 5; in data set [3]; in data set [4] (insect cells)) was “Not Active” each time. Also, on Cytochrome P450 2A6, the IC50 entry is on record as “Not Active”. The Ki result on Cytochrome P450 2A6 is reported as “Not Active”.
`COc1ccc2c(c1)c(CC(=O)O)c(C)n2C(=O)c1ccc(Cl)cc1` [INDOMETHACIN]: the IC50 entry (in data set [1]; on Interstitial collagenase; in data set [2]; against Melanocortin receptor 5; in data set [3]; in data set [4] (insect cells)) was “Not Active” each time. The 50% inhibitory concentration (IC50) result against Cytochrome P450 2A6 is “Not Active”. In addition, the Ki entry on Cytochrome P450 2A6 was “Not Active”.
In the case of `CCc1c2c(nc3ccc(OC(=O)N4CCC(N5CCCCC5)CC4)cc13)-c1cc3c(c(=O)n1C2)COC(=O)[C@]3(O)CC` [IRINOTECAN], the IC50 result in data set [1] is “Not Active”; on Interstitial collagenase (read-out: IC50) it was 6.06 µM; in data set [2], “Not Active”; against Melanocortin receptor 5 it was “Not Active”; in data set [3], “Not Active”; in data set [4] (insect cells), “Not Active”. In addition, the IC50 entry at Cytochrome P450 2A6 is recorded as “Not Active”. The Ki result on Cytochrome P450 2A6 is “Not Active”.
Regarding `CC(C(=O)O)c1cccc(C(=O)c2ccccc2)c1` (centres undefined) [KETOPROFEN], the IC50 entry (in data set [1]; against Interstitial collagenase; in data set [2]; against Melanocortin receptor 5; in data set [3]; in data set [4] (insect cells)) was “Not Active” in each case. Moreover, the IC50 result at Cytochrome P450 2A6 is “Not Active”. Moreover, the Ki result at Cytochrome P450 2A6 is given as “Not Active”.
`Nc1ccn([C@@H]2CS[C@H](CO)O2)c(=O)n1` [LAMIVUDINE]: the IC50 entry (in data set [1]; against Interstitial collagenase; in data set [2]; against Melanocortin receptor 5; in data set [3]; in data set [4] (insect cells)) was “Not Active” throughout. Also, the IC50 entry against Cytochrome P450 2A6 was “Not Active”. For the same molecule, the Ki result at Cytochrome P450 2A6 was “Not Active”.

In general, IC50 refers to the midpoint of a concentration-inhibition curve.
